Values quoted from earlier work in patent US20160052846A1, “METHOD OF DEMULSIFYING AND PURIFYING ORGANIC PRODUCTS FROM AN EMULSION” (CODEXIS, INC., priority 2012, published 2016).
Where two headings read alike, the source gives them in different places.

Details: for Water sol: in words, no temperature

| Molecule | Water sol | other results |
| --- | --- | --- |
| propan-1-ol [Propanol] | soluble |  |
| CCCCCO [Amyl alcohol, pentan-1-ol] |  | Water sol (g per 100 g) (at 22° C.): 2.7 at 22 °C g per 100 g |
| CC(C)CCO [Isopentanol, 3-methylbutan-1-ol] |  | Water sol (g per 100 g) (at 14° C.): 2 at 14 °C g per 100 g |
| CC(C)(C)CO [Neopentyl alcohol, 2,2-dimethylpropan-1-ol] | Slightly soluble |  |
| CC(C)CO [Isobutanol, 2-methylpropan-1-ol] |  | Water sol (g per 100 g) (at 15° C.): 10 at 15 °C g per 100 g |
| CC(C)O [Isopropanol, propan-2-ol] | soluble |  |
| CC(C)C(C)O (centres unmarked) [Sec iso amyl alcohol, 3-methylbutan-2-ol] | Slightly soluble |  |
| CCCC(C)O (centres unmarked) [2-pentanol, pentan-2-ol] |  | Water sol (g per 100 g) (at 20° C.): 4 at 20 °C g per 100 g |
